Laboratory results published in publication PMC10836395, “Investigation of how gate residues in the main channel affect the catalytic activity of Scytalidium thermophilum catalase” (Acta Crystallographica. Section D, Structural Biology, 2024).
Where two headings read alike, the source gives them in different places. Marks after values point to notes of the source that are not given here.

Experiments:
CATPO T188A variant [1] = target: T1, CATPO T188A variant (Scytalidium thermophilum (Humicola insolens), UniProt M4GGR5, T207A); test: biochemical
T1 sequence (M4GGR5 entry or part of it T207A): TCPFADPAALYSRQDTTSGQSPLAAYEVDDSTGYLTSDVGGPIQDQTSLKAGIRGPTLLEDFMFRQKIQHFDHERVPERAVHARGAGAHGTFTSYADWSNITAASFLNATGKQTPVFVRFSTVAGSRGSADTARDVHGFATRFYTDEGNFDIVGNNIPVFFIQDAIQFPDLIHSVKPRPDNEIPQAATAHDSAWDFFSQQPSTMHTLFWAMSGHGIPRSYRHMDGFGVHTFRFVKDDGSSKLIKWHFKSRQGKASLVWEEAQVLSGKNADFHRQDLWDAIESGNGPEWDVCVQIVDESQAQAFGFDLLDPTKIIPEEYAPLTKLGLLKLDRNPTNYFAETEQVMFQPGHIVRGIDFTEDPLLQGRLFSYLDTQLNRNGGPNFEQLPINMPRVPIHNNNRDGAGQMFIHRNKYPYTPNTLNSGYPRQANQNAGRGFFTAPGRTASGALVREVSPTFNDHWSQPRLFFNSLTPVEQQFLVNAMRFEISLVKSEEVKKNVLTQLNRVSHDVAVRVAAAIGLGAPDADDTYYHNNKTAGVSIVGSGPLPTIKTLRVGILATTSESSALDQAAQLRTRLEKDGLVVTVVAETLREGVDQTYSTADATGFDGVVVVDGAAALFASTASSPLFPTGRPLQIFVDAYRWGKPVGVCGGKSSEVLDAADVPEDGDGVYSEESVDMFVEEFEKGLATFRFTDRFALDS

CATPO T188A variant [2] = target: T1, CATPO T188A variant; type: biochemical; conditions: for K m: pH 7.0 (ABTS pH 5.0), 60°C
CATPO T188I variant [3] = target: T2, CATPO T188I variant (Scytalidium thermophilum (Humicola insolens), UniProt M4GGR5, T207I); type: biochemical; conditions: for K m: pH 7.0 (ABTS pH 5.0), 60°C
T2 sequence (M4GGR5 entry or part of it T207I): as the sequence (M4GGR5 entry or part of it T207A) above

CATPO T188F variant [4] = target: T3, CATPO T188F variant (Scytalidium thermophilum (Humicola insolens), UniProt M4GGR5, T207F); type: biochemical; conditions: for K m: pH 7.0 (ABTS pH 5.0), 60°C
T3 sequence (M4GGR5 entry or part of it T207F): as the sequence (M4GGR5 entry or part of it T207A) above

CATPO E484A variant [5] = target: T4, CATPO E484A variant (Scytalidium thermophilum (Humicola insolens), UniProt M4GGR5, E503A); test: biochemical
T4 sequence (M4GGR5 entry or part of it E503A): as the sequence (M4GGR5 entry or part of it T207A) above

CATPO T188D variant [6] = target: T5, CATPO T188D variant (Scytalidium thermophilum (Humicola insolens), UniProt M4GGR5, T207D); test: biochemical
T5 sequence (M4GGR5 entry or part of it T207D): as the sequence (M4GGR5 entry or part of it T207A) above

CATPO [7] = target: T6, CATPO (Scytalidium thermophilum (Humicola insolens), UniProt M4GGR5); test: Substrate-specificity analysis of the phenol oxidase activity; type: biochemical; conditions: for K m: pH 7.0 (ABTS pH 5.0), 60°C
T6 sequence (M4GGR5 entry or part of it): as the sequence (M4GGR5 entry or part of it T207A) above

CATPO [8] = target: T6, CATPO; test: Inhibition of catechol oxidation; type: biochemical; conditions: for Ki: catechol oxidation by CATPO, catechol 1 to 100 mM, read-out: K i
CATPO E484D variant [9] = target: T7, CATPO E484D variant (Scytalidium thermophilum (Humicola insolens), UniProt M4GGR5, E503D); test: biochemical
T7 sequence (M4GGR5 entry or part of it E503D): as the sequence (M4GGR5 entry or part of it T207A) above

CATPO E484I variant [10] = target: T8, CATPO E484I variant (Scytalidium thermophilum (Humicola insolens), UniProt M4GGR5, E503I); type: biochemical; conditions: for K m: pH 7.0 (ABTS pH 5.0), 60°C
T8 sequence (M4GGR5 entry or part of it E503I): as the sequence (M4GGR5 entry or part of it T207A) above

CATPO T188F variant [11] = target: T3, CATPO T188F variant; test: biochemical
CATPO T188D variant [12] = target: T5, CATPO T188D variant; type: biochemical; conditions: for K m: pH 7.0 (ABTS pH 5.0), 60°C
CATPO E484A variant [13] = target: T4, CATPO E484A variant; test: Substrate-specificity analysis of the phenol oxidase activity; type: biochemical; conditions: for K m: pH 7.0 (ABTS pH 5.0), 60°C
CATPO E484D variant [14] = target: T7, CATPO E484D variant; type: biochemical; conditions: for K m: pH 7.0 (ABTS pH 5.0), 60°C
CATPO E484I variant [15] = target: T8, CATPO E484I variant; test: biochemical
CATPO T188I variant [16] = target: T2, CATPO T188I variant; test: biochemical

| Compound | V max (CATPO T188A variant [2]) | k cat/K m (CATPO T188A variant [2]) | K m (CATPO T188A variant [2]) | V max (CATPO T188I variant [3]) | k cat/K m (CATPO T188I variant [3]) | K m (CATPO T188I variant [3]) | V max (CATPO T188F variant [4]) | k cat/K m (CATPO T188F variant [4]) | K m (CATPO T188F variant [4]) | V max (CATPO [7]) | k cat/K m (CATPO [7]) | Ki (CATPO [8]) | V max (CATPO E484I variant [10]) | k cat/K m (CATPO E484I variant [10]) | K m (CATPO E484I variant [10]) | V max (CATPO T188D variant [12]) | k cat/K m (CATPO T188D variant [12]) | K m (CATPO T188D variant [12]) | V max (CATPO E484A variant [13]) | k cat/K m (CATPO E484A variant [13]) | also measured |
| --- | --- | --- | --- | --- | --- | --- | --- | --- | --- | --- | --- | --- | --- | --- | --- | --- | --- | --- | --- | --- | --- |
| CC(C)(C)c1ccc(O)c(O)c1 [1,4-tert-Butylcatechol, 4-tert-butylcatechol] | 19400 ± 568 mM/min | 1460 ± 150 s^−1 M^−1 (×10^2) | 37 ± 1.0 mM | 30500 ± 650 mM/min | 4900 ± 410 s^−1 M^−1 (×10^2) | 35 ± 0.5 mM | 41600 ± 340 mM/min | 5230 ± 145 s^−1 M^−1 (×10^2) | 34 ± 0.4 mM | 20000 ± 362 mM/min | 1240 ± 90 s^−1 M^−1 (×10^2) | 2.1 ± 0.8 mM | 28600 ± 430 mM/min | 4450 ± 66 s^−1 M^−1 (×10^2) | 37 ± 0.4 mM | 18000 ± 500 mM/min | 6590 ± 150 s^−1 M^−1 (×10^2) | 38 ± 0.5 mM | 65000 ± 745 mM/min | 10000 ± 65 s^−1 M^−1 (×10^2) | Ki (CATPO T188A variant [1]): 2.1 ± 0.1 mM; Ki (CATPO E484A variant [5]): 67 ± 7 mM; Ki (CATPO T188D variant [6]): 49 ± 3.2 mM; Ki (CATPO E484D variant [9]): 2.2 ± 0.5 mM; Ki (CATPO T188F variant [11]): 59 ± 4.5 mM; K m (CATPO E484A variant [13]): 33 ± 0.5 mM; V max (CATPO E484D variant [14]): 18800 ± 144 mM/min; k cat/K m (CATPO E484D variant [14]): 1300 ± 100 s^−1 M^−1 (×10^2); K m (CATPO E484D variant [14]): 38 ± 0.5 mM; Ki (CATPO E484I variant [15]): 50 ± 1.5 mM; Ki (CATPO T188I variant [16]): 53 ± 4.5 mM |
| Nc1nc[nH]n1 [3TR, 3-amino-1,2,4-triazole] | – | – | – | – | – | – | – | – | – | – | – | 21 ± 1 mM | – | – | – | – | – | – | – | – | Ki (CATPO T188A variant [1]): 20 ± 0.2 mM; Ki (CATPO E484A variant [5]): 65 ± 5.5 mM; Ki (CATPO T188D variant [6]): 41 ± 4.1 mM; inhibition type (CATPO [8]; catechol oxidase activity of wild-type CATPO, Lineweaver–Burk): competitive; Ki (CATPO E484D variant [9]): 22 ± 3.2 mM; Ki (CATPO T188F variant [11]): 54 ± 4.5 mM; Ki (CATPO E484I variant [15]): 40 ± 4 mM; Ki (CATPO T188I variant [16]): 42 ± 4 mM |
| CCn1c(=NN=c2sc3cc(S(=O)(=O)O)ccc3n2CC)sc2cc(S(=O)(=O)O)ccc21 [ABTS, 2,2′-azino-bis(3-ethylbenzthiazoline-6-sulfonic acid)] | 5000 ± 100 mM/min | 90 ± 5 s^−1 M^−1 (×10^2) | 52 ± 0.8 mM | 6000 ± 100 mM/min | 190 ± 18 s^−1 M^−1 (×10^2) | 48 ± 0.7 mM | 6600 ± 120 mM/min | 270 ± 25 s^−1 M^−1 (×10^2) | 45 ± 0.5 mM | 5620 ± 250 mM/min | 590 ± 20 s^−1 M^−1 (×10^2) | 11 ± 1 mM | 4600 ± 98 mM/min | 170 ± 10 s^−1 M^−1 (×10^2) | 50 ± 0.5 mM | 4000 ± 88 mM/min | 200 ± 25 s^−1 M^−1 (×10^2) | 55 ± 1.0 mM | 8600 ± 220 mM/min | 300 ± 10 s^−1 M^−1 (×10^2) | Ki (CATPO T188A variant [1]; catechol oxidation by T188A, read-out: K i): 12 ± 1.2 mM; Ki (CATPO E484A variant [5]; catechol oxidation by E484A, read-out: K i): 96 ± 5.4 mM; Ki (CATPO T188D variant [6]; catechol oxidation by T188D, read-out: K i): 81 ± 1 mM; K m (CATPO [7]): 50 ± 1.5 mM; Ki (CATPO E484D variant [9]; catechol oxidation by E484D, read-out: K i): 12 ± 1.2 mM; Ki (CATPO T188F variant [11]; catechol oxidation by T188F, read-out: K i): 84 ± 7 mM; K m (CATPO E484A variant [13]): 46 ± 1.0 mM; V max (CATPO E484D variant [14]): 5500 ± 132 mM/min; k cat/K m (CATPO E484D variant [14]): 100 ± 10 s^−1 M^−1 (×10^2); K m (CATPO E484D variant [14]): 53 ± 1.0 mM; Ki (CATPO E484I variant [15]; catechol oxidation by E484I, read-out: K i): 81 ± 8 mM |
| Oc1ccccc1O [Catechol, catechol] | 22500 ± 1000 mM/min | 2000 ± 120 s^−1 M^−1 (×10^2) | 33 ± 0.5 mM | 65000 ± 1100 mM/min | 9200 ± 45 s^−1 M^−1 (×10^2) | 31 ± 0.5 mM | 70000 ± 1290 mM/min | 10200 ± 220 s^−1 M^−1 (×10^2) | 30 ± 1.0 mM | 25000 ± 763 mM/min | 2200 ± 130 s^−1 M^−1 (×10^2) | – | 50000 ± 1988 mM/min | 8800 ± 72 s^−1 M^−1 (×10^2) | 30 ± 1.0 mM | 40000 ± 4000 mM/min | 8900 ± 70 s^−1 M^−1 (×10^2) | 25 ± 1.5 mM | 88000 ± 880 mM/min | 14500 ± 130 s^−1 M^−1 (×10^2) | K m (CATPO [7]): 33 ± 0.5 mM; K m (CATPO E484A variant [13]): 30 ± 1.0 mM; V max (CATPO E484D variant [14]): 23000 ± 1500 mM/min; k cat/K m (CATPO E484D variant [14]): 2100 ± 105 s^−1 M^−1 (×10^2); K m (CATPO E484D variant [14]): 35 ± 0.5 mM |
